How the values were obtained:
CFTR = CFTR (Homo sapiens, UniProt P13569); assay: Standard Ussing Chamber Assay for CFTR potentiator activity; type: cell-based
Experimental: tert-Butyl N-[(6R,12R)-6-benzyloxy-12-methyl-6,15-bis(trifluoromethyl)-13,19-dioxa-3,4,18-triazatricyclo[12.3.1.12,5]nonadeca-1(18),2,4,14,16-pentaen-17-yl]-N-tert-butoxycarbonyl-carbamate (8.6 g, 11.77 mmol) was dissolved in ethanol (172 mL) then the flask was cycled 3 times between vacuum/nitrogen. Treated the mixture with 10% Pd/C (50% water wet, 1.8 g of 5% w/w, 0.8457 mmol) then cycled 3 times between vacuum/nitrogen and 3 times between vacuum/hydrogen and then stirred vigorously under hydrogen (balloon) at room temperature for 18 h. The mixture was cycled 3 times between vacuum/nitrogen, filtered over Celite washing with ethanol and then the filtrate was evaporated to give 7.3 g of tert-butyl N-tert-butoxycarbonyl-N-[(6R,12R)-6-hydroxy-12-methyl-6,15-bis(trifluoromethyl)-13,19-dioxa-3,4,18-triazatricyclo[12.3.1.12,5]nonadeca-1(18),2,4,14,16-pentaen-17-yl]carbamate an off-white solid. 1H NMR and MS confirmed the expected product. CFTR modulatory activity was confirmed using a standard Ussing Chamber Assay for CFTR potentiator activity.

F508del in NIH 3T3 cells = target: T1, F508del in NIH 3T3 cells (Homo sapiens, UniProt P13569, DEL508-508); assay: 3T3 assay: membrane potential optical assay for F508del correction; type: cell-based; conditions: NIH 3T3 cells, F508del; for Emax: NIH3T3, read-out: 3T3 Max Activity (%); for EC50: read-out: 3T3 EC50
T1 construct: expressed in transfected cells
In short: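 NIH 3T3 mouse fibroblasts stably expressing F508del were incubated with corrector compounds at a range of concentrations for 16–24 h at 37 °C, then loaded with a voltage-sensing redistribution dye. Channel activity was read as membrane-potential change on FLIPR after a single addition of forskolin with a chloride-free (gluconate) bath creating a Cl⁻ gradient.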

T1 sequence (P13569 with tags, fused parts or gaps DEL508-508): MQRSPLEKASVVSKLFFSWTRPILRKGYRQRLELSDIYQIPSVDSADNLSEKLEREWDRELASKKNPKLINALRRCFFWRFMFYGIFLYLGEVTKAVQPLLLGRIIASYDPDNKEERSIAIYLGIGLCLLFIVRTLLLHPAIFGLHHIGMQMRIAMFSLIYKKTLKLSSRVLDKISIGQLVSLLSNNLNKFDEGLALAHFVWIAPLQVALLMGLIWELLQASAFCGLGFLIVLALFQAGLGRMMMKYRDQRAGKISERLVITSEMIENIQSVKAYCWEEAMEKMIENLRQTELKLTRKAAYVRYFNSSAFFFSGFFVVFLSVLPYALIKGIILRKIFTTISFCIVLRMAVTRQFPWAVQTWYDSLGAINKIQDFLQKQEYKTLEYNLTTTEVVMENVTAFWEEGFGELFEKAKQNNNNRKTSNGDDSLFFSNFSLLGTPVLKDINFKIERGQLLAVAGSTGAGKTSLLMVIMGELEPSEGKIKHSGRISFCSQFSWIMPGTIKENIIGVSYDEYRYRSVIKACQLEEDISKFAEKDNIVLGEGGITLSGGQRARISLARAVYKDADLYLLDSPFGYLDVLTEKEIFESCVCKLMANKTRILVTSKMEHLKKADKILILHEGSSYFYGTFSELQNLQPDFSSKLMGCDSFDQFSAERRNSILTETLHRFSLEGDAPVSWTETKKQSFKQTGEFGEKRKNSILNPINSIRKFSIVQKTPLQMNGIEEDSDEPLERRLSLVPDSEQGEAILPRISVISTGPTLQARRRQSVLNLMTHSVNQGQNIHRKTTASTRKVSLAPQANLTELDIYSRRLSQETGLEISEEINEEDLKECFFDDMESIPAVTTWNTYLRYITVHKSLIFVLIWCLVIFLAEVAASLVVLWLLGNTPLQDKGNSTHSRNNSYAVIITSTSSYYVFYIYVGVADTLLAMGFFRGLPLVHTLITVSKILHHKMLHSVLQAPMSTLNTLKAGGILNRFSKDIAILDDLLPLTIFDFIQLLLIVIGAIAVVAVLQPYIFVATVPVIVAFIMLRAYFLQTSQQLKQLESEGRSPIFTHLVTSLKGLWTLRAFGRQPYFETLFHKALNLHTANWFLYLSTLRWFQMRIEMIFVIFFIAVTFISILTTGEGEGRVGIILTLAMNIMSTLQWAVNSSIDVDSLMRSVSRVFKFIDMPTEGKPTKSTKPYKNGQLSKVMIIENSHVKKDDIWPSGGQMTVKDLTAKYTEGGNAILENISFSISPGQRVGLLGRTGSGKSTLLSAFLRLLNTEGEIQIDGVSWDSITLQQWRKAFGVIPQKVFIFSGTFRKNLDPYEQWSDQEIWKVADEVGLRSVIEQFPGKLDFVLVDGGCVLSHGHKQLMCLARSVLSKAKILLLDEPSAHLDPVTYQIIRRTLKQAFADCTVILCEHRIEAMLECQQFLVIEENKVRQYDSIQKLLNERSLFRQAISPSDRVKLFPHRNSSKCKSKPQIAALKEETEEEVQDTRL
Chain of CFTR (P13569 whole entry, species assumed): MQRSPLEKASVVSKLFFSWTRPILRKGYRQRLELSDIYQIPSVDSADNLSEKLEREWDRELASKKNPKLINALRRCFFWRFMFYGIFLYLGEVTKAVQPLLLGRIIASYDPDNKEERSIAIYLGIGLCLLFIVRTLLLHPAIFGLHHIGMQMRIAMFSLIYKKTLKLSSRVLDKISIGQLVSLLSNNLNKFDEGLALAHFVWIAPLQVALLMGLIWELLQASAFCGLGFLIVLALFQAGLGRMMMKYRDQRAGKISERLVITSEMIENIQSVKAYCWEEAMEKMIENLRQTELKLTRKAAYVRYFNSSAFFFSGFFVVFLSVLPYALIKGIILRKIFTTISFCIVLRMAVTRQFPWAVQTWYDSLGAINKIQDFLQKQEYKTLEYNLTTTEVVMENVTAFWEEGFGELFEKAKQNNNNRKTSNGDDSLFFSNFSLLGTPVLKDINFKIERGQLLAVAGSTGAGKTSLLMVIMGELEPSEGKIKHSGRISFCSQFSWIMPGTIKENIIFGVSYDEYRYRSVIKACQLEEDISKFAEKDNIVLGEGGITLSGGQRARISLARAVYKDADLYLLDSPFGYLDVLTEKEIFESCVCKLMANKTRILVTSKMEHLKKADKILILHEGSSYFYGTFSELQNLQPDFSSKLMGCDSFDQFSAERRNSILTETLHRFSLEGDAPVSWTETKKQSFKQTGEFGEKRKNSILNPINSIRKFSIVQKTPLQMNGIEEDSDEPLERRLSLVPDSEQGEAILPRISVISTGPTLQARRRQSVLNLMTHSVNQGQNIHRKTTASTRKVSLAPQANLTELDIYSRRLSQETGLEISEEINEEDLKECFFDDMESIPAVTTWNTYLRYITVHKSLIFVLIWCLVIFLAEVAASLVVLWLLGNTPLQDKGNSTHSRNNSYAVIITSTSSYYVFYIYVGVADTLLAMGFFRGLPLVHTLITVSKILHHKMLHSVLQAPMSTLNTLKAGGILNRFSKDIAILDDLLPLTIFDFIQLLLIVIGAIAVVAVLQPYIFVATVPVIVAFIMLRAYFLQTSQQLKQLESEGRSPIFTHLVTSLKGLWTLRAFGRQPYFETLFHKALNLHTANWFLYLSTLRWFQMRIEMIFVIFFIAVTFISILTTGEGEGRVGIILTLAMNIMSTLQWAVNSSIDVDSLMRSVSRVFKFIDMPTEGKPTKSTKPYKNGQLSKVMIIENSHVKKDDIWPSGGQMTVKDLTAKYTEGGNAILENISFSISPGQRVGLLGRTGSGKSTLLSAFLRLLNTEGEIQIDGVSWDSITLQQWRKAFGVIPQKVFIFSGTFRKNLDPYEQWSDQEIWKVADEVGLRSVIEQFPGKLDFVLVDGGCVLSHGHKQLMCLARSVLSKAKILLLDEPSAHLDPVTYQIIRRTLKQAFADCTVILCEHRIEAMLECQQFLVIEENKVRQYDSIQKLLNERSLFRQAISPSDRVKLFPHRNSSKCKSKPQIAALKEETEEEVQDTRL

Row | SMILES | CFTR modulatory activity (CFTR potentiator activity) (CFTR) | Emax (F508del in NIH 3T3 cells) [%] | EC50 (F508del in NIH 3T3 cells) [µM]
1 | C[C@@H]1CCCCC[C@](O)(C(F)(F)F)C2=NN=C(O2)c2nc(c(C(F)(F)F)cc2N)O1 [(6R,12R)-17-Amino-12-methyl-6,15-bis(trifluoromethyl)-13,19-dioxa-3,4,18-triazatricyclo[12.3.1.12,5]nonadeca-1(18),2,4,14,16-pentaen-6-ol] | confirmed | – | –
2 | O=S(=O)(NC1=NC(c2ccccc2)C=C(c2ccccc2)S1)c1ccccc1 (stereo not drawn) [Compound 117, N-(4,6-diphenyl-4H-1,3-thiazin-2-yl)benzenesulfonamide] | – | 30 to 60 | 1 to 3
3 | O=S(=O)(Nc1ncc(-c2ccccc2)nc1-c1ccccc1)c1ccccc1 [Compound 118, N-(3,5-diphenylpyrazin-2-yl)benzenesulfonamide] | – | > 60 | 1 to 3
4 | Cc1cccc(C)c1-c1cnc(NCc2ccccc2)c(NS(=O)(=O)c2ccccc2)n1 [Compound 119, N-[3-(benzylamino)-6-(2,6-dimethylphenyl)pyrazin-2-yl]benzenesulfonamide] | – | 30 to 60 | 1 to 3
5 | O=c1c(NS(=O)(=O)c2ccccc2)nc(-c2ccccc2)cn1-c1ccccc1 [Compound 120, N-(3-oxo-4,6-diphenyl-pyrazin-2-yl)benzenesulfonamide] | – | 30 to 60 | 1 to 3
6 | Cc1cccc(C)c1-c1cnc(Oc2ccccc2)c(NS(=O)(=O)c2ccccc2)n1 [Compound 121, N-[6-(2,6-dimethylphenyl)-3-phenoxy-pyrazin-2-yl]benzenesulfonamide] | – | < 30 | –
7 | Cc1cccc(C)c1-c1cnc(N2CCN(C)CC2)c(NS(=O)(=O)c2ccccc2)n1 [Compound 122, N-[6-(2,6-dimethylphenyl)-3-(4-methylpiperazin-1-yl)pyrazin-2-yl]benzenesulfonamide] | – | < 30 | –
8 | CC(C)Oc1nc(NS(=O)(=O)c2ccccc2)nc(-c2ccccc2)n1 [Compound 124, N-(4-isopropoxy-6-phenyl-1,3,5-triazin-2-yl)benzenesulfonamide] | – | 30 to 60 | 3 to 30
9 | O=S(=O)(Nc1nc(Oc2ccccc2)nc(-c2ccccc2)n1)c1ccccc1 [Compound 125, N-(4-phenoxy-6-phenyl-1,3,5-triazin-2-yl)benzenesulfonamide] | – | 30 to 60 | < 1
10 | Nc1cccc(S(=O)(=O)Nc2nc(Oc3ccccc3)nc(-c3ccccc3)n2)c1 [Compound 126, 3-amino-N-(4-phenoxy-6-phenyl-1,3,5-triazin-2-yl)benzenesulfonamide] | – | 30 to 60 | 3 to 30
11 | CC1CN(c2cc(NS(=O)(=O)c3ccccc3)nc(Oc3ccccc3)n2)C(C)(C)C1 (stereo not drawn) [Compound 128, N-[2-phenoxy-6-(2,2,4-trimethylpyrrolidin-1-yl)pyrimidin-4-yl]benzenesulfonamide] | – | 30 to 60 | < 1
12 | CC1CN(c2nc(NS(=O)(=O)c3ccccc3)cc(Oc3ccccc3)n2)C(C)(C)C1 (stereo not drawn) [Compound 129, N-[6-phenoxy-2-(2,2,4-trimethylpyrrolidin-1-yl)pyrimidin-4-yl]benzenesulfonamide] | – | < 30 | –
13 | O=S(=O)(Nc1cc(-c2ccccc2)nc(Oc2ccccc2)n1)c1ccccc1 [Compound 130, N-(2-phenoxy-6-phenylpyrimidin-4-yl)benzenesulfonamide] | – | 30 to 60 | 1 to 3
14 | O=S(=O)(Nc1cc(-c2ccccc2)nc(-c2ccccc2)n1)c1ccccc1 [Compound 131, N-(2,6-diphenylpyrimidin-4-yl)benzenesulfonamide] | – | > 60 | 1 to 3
15 | O=S(=O)(Nc1cc(OCc2ccccc2)nc(-c2ccccc2)n1)c1ccccc1 [Compound 132, N-(6-benzyloxy-2-phenyl-pyrimidin-4-yl)benzenesulfonamide] | – | 30 to 60 | 1 to 3
16 | O=S(=O)(Nc1cc(Oc2ccccc2)cc(Oc2ccccc2)n1)c1ccccc1 [Compound 133, N-(4,6-Diphenoxy-2-pyridyl)benzenesulfonamide] | – | > 60 | 1 to 3
17 | Cc1ccc(-c2nc(NS(=O)(=O)c3ccccc3)ccc2C)cc1C [Compound 134, N-[6-(3,4-Dimethylphenyl)-5-methyl-2-pyridyl]benzenesulfonamide] | – | > 60 | 3 to 30
18 | Cc1cc(NS(=O)(=O)c2ccccc2)nc(-c2cc(C)ccc2C)c1 [Compound 135, N-[6-(2,5-Dimethylphenyl)-4-methyl-2-pyridyl]benzenesulfonamide] | – | > 60 | 1 to 3
19 | O=S(=O)(Nc1cc(Oc2ccccc2)cc(-c2ccccc2)n1)c1ccccc1 [Compound 136, N-(4-phenoxy-6-phenyl-2-pyridyl)benzenesulfonamide] | – | > 60 | 1 to 3

Row | SMILES | CFTR modulatory activity (CFTR potentiator activity) (CFTR) | Emax (F508del in NIH 3T3 cells) [%] | EC50 (F508del in NIH 3T3 cells) [µM]
20 | Cc1ccc(NS(=O)(=O)c2ccccc2)nc1-c1cccc(C)c1C [Compound 137, N-[6-(2,3-Dimethylphenyl)-5-methyl-2-pyridyl]benzenesulfonamide] | – | > 60 | 1 to 3
21 | Cc1ccc(C)c(-c2nc(NS(=O)(=O)c3ccccc3)ccc2C)c1 [Compound 138, N-[6-(2,5-Dimethylphenyl)-5-methyl-2-pyridyl]benzenesulfonamide] | – | > 60 | 1 to 3
22 | Cc1ccc(C)c(-c2nc(NS(=O)(=O)c3ccccc3)cc(C)c2C)c1 [Compound 139, N-[6-(2,5-Dimethylphenyl)-4,5-dimethyl-2-pyridyl]benzenesulfonamide] | – | > 60 | 1 to 3
23 | CCCc1ccc(NS(=O)(=O)c2ccccc2)nc1-c1ccc(C)cc1 [Compound 140, N-[5-propyl-6-(p-tolyl)-2-pyridyl]benzenesulfonamide] | – | > 60 | 1 to 3
24 | C/C=C/c1ccc(NS(=O)(=O)c2ccccc2)nc1Oc1ccccc1 [Compound 141, N-[6-phenoxy-5-[(E)-prop-1-enyl]-2-pyridyl]benzenesulfonamide] | – | > 60 | 1 to 3
25 | O=S(=O)(Nc1cc(-c2ccccc2)cc(Oc2ccccc2)n1)c1ccccc1 [Compound 142, N-(6-phenoxy-4-phenyl-2-pyridyl)benzenesulfonamide] | – | > 60 | < 1
26 | Cc1ccc(-c2cc(NS(=O)(=O)c3ccccc3)nc(-c3ccc(C)cc3)c2)cc1 [Compound 143, N-[4,6-bis(p-tolyl)-2-pyridyl]benzenesulfonamide] | – | > 60 | 1 to 3
27 | Cc1ccc(-c2ccc(NS(=O)(=O)c3ccccc3)nc2-c2ccc(C)cc2)cc1 [Compound 144, N-[5,6-bis(p-tolyl)-2-pyridyl]benzenesulfonamide] | – | > 60 | 1 to 3
28 | C/C=C/c1ccc(NS(=O)(=O)c2ccccc2)nc1-c1ccc(C)cc1 [Compound 148] | – | > 60 | 1 to 3
29 | Cc1cc(C)cc(-c2nc(NS(=O)(=O)c3ccccc3)ccc2C)c1 [Compound 149] | – | > 60 | 3 to 30
30 | Cc1ccc(-c2nc(NS(=O)(=O)c3ccccc3)ccc2C)c(C)c1 [Compound 150] | – | > 60 | 1 to 3
31 | Cc1cc(C)cc(-c2cc(C)cc(NS(=O)(=O)c3ccccc3)n2)c1 [Compound 151] | – | 30 to 60 | 3 to 30
32 | Cc1cc(NS(=O)(=O)c2ccccc2)nc(-c2ccc(C)cc2C)c1 [Compound 152] | – | > 60 | 3 to 30
33 | Cc1cc(NS(=O)(=O)c2ccccc2)nc(-c2ccc(C)c(C)c2)c1 [Compound 153] | – | > 60 | 3 to 30
34 | Cc1cc(NS(=O)(=O)c2ccccc2)nc(-c2cccc(C)c2C)c1 [Compound 154] | – | > 60 | 3 to 30
35 | Cc1cc(C)cc(-c2nc(NS(=O)(=O)c3ccccc3)cc(C)c2C)c1 [Compound 155] | – | > 60 | 1 to 3
36 | Cc1ccc(-c2nc(NS(=O)(=O)c3ccccc3)cc(C)c2C)c(C)c1 [Compound 156] | – | > 60 | 3 to 30
37 | Cc1ccc(-c2nc(NS(=O)(=O)c3ccccc3)cc(C)c2C)cc1C [Compound 157] | – | > 60 | 1 to 3
38 | Cc1cccc(-c2nc(NS(=O)(=O)c3ccccc3)cc(C)c2C)c1C [Compound 158] | – | > 60 | 3 to 30

— patent US20230373939A1 (VERTEX PHARMACEUTICALS INCORPORATED, priority 2020, published 2023)
